Laboratory results: article PMC6272238, “Synthesis and Pharmacophore Modelling of 2,6,9-Trisubstituted Purine Derivatives and Their Potential Role as Apoptosis-Inducing Agents in Cancer Cell Lines” (Molecules, 2015)

Tests used:
[1] = tested on: H1975 (lung) cells; assay: MTT cytotoxicity assay on H1975 cells; format: cell-based, human; settings: for IC50: MTT, 72 h continuous exposure, triplicate, range 0.05 to 50 µM; for Selectivity Index (SI) (Vero/H1975): ratio IC50 (Vero)/IC50 (H1975)
Method: (§1) The potential in vitro antitumor activity of compounds 4a–l was initially tested for their cytotoxic effects on H1975, HL-60, HCT116 and HeLa cancer cell lines and Vero cells. […]
(§2) Cancer cell lines were grown at 37 °C in humidified atmosphere and 5% CO2. H1975, HL60, HTC116 and Vero cells were grown in RPMI 1640 culture medium supplemented with 10% fetal bovine serum and (100 UI/mL) penicillin-streptomicyn. HeLa cells were grown in EMEM culture medium, supplemented with 10% fetal bovine serum and (100 UI/mL) penicillin-streptomicyn.
(§3) Cytotoxicity assays were performed by using the MTT reduction method as described previously. Briefly, cancer cell lines were plated in a flat-bottom 96-wells plate at 10,000 cells per well density. […] Ten µL of MTT was added at a final concentration of 0.5 mg/mL, incubated at 37 °C for 4 h, and then solubilized with 10% sodium dodecyl sulfate (SDS) in 0.1 mM HCl and incubated overnight at 37 °C. Formazan formation was measured at 570 nm in a multiwell reader (StatFax 4200, Awareness Technology, Inc. Palm City, FL, USA).
(§4) Values are expressed as means ± standard deviations from three independent experiments. IC50 values, (Compound concentration necessary to decrease at 50% the MTT reduction) and the two-way analysis of variance (ANOVA) test were performed when necessary with Prism GraphPad 6.0f software (GraphPad Software Inc., San Diego, CA, USA).

[2] = tested on: HL-60 (leukemia) cells; assay: MTT cytotoxicity assay on HL-60 cells; format: cell-based, human; settings: 72 h continuous exposure, triplicate, range 0.05 to 50 µM
Method: as §1, §2, §3, §4

[3] = tested on: HCT116 (colorectal) cells; assay: MTT cytotoxicity assay on HCT116 cells; format: cell-based, human; settings: for IC50: MTT, 72 h continuous exposure, triplicate, range 0.05 to 50 µM; for Selectivity Index (SI) (Vero/HCT116): ratio IC50 (Vero)/IC50 (HCT116)
Method: as §1, §2, §3, §4

[4] = tested on: HeLa cells; assay: MTT cytotoxicity assay on HeLa cells; format: cell-based, human; settings: for IC50: MTT, 72 h continuous exposure, triplicate, range 0.05 to 50 µM; for Selectivity Index (SI) (Vero/HeLa): ratio IC50 (Vero)/IC50 (HeLa)
Method: as §1, §2, §3, §4

[5] = tested on: Vero cells; assay: MTT cytotoxicity assay on Vero cells; format: cell-based; settings: Chlorocebus sabaeus, 72 h continuous exposure, triplicate, range 0.05 to 50 µM
[6] = tested on: H1975 cells; assay: Apoptosis/viability assay by FACS with propidium iodide, H1975; format: cell-based, human; settings: H1975, 50 µM, 16 h, PI staining
Method: (§5) To evaluate sensitivity to 4f, 4j and 4k, Vero, HTC116, H1975 and Hela were treated with concentrations of 50 µM for 16 h. Fifty µM etoposide was used as positive control. As it can be seen in Figure 5, 4f, 4j and 4k induced apoptosis as a prevalent type of cell death, in high percentages (>70%), in every cancer cell line. Moreover, 4f, 4j, and 4k induced an apoptotic cell response greater than etoposide.
(§6) Cell viability was analyzed by FACS as previously described. In this assay, after setting the baseline to exclude cell debris, cells impermeable to propidium iodide (PI negative) are considered as viable. Two populations of PI-permeable dead cells are distinguished based on fluorescence intensity, corresponding to either hypodiploid apoptotic cells or necrotic cells with intact DNA. Here, H1975, HTC116, and HeLa cells were incubated with concentrations of 50 µM of each compound for 16 h at 37 °C. Cells were harvested and stained with 10 µg/mL of propidium iodide to determine cell viability. Samples containing roughly 1 × 10^4 cells were evaluated by flow cytometry (FACScanto II; Becton Dickinson, Mountain View, CA, USA) and analyzed using the software program FCS Express v5.

[7] = tested on: HTC116 cells; assay: Apoptosis/viability assay by FACS with propidium iodide, HTC116; format: cell-based, human; settings: HTC116, 50 µM, 16 h, PI staining
Method: as §5, §6

[8] = tested on: HeLa cells; assay: Apoptosis/viability assay by FACS with propidium iodide, HeLa; format: cell-based, human; settings: 50 µM, 16 h, PI staining
Method: as §5, §6

Row | melting point [°C] | SMILES | IC50 ([1]; Homo sapiens, NCI-H1975, 72 h) [µM] | Selectivity Index (SI) (Vero/H1975) [1] | IC50 ([2]; Homo sapiens, HL-60, 72 h) [µM] | IC50 ([3]; Homo sapiens, HCT-116, 72 h) [µM] | Selectivity Index (SI) (Vero/HCT116) [3] | IC50 ([4]; Homo sapiens, HeLa, 72 h) [µM] | Selectivity Index (SI) (Vero/HeLa) [4] | IC50 [5] [µM] | apoptosis (percentage of cells) [6] [%] | apoptosis (percentage of cells) [7] [%] | apoptosis (percentage of cells) [8] [%] | IC50 [1] [µM] | IC50 [2] [µM] | IC50 [3] [µM] | IC50 [4] [µM]
1 | – | CCCCCn1cnc2c(NCc3ccc(OC)cc3)nc(NCc3ccccc3)nc21 [Compound 4j, N^2-Benzyl-N^6-(4-methoxybenzyl)-9-pentyl-9H-purine-2,6-diamine] | 2.3 ± 0.13 | 11.30 | > 50 | 8 ± 0.21 | 3.25 | 9.5 ± 0.14 | 2.74 | 26 ± 0.18 | > 70 | > 70 | > 70 | – | – | – | –
2 | – | COc1ccc(CNc2nc(NCc3ccccc3)nc3c2ncn3CCC(C)C)cc1 [Compound 4k, N^2-Benzyl-9-isopentyl-N^6-(4-methoxybenzyl)-9H-purine-2,6-diamine] | 5.6 ± 0.23 | 6.07 | > 50 | 11 ± 0.26 | 3.09 | 5.4 ± 0.32 | 6.30 | 34 ± 0.13 | > 70 | > 70 | > 70 | – | – | – | –
3 | – | CC(C)n1cnc2c(NCc3ccccc3)nc(NCc3ccccc3)nc21 [Compound 4a, N^2,N^6-Dibenzyl-9-isopropyl-9H-purine-2,6-diamine] | 14 ± 0.26 | 1.43 | 26 ± 0.13 | 13 ± 0.12 | 1.54 | 32 ± 0.13 | 0.63 | 20 ± 0.11 | – | – | – | – | – | – | –
4 | 111 to 113 | CC(C)Cn1cnc2c(NCc3ccccc3)nc(NCc3ccccc3)nc21 [Compound 4c, N^2,N^6-Dibenzyl-9-isobutyl-9H-purine-2,6-diamine] | > 36 | 0.61 | > 36 | > 36 | – | > 36 | – | 22 ± 0.23 | – | – | – | 36 ± 0.27 | > 50 | > 50 | > 50
5 | – | CCCCCCn1cnc2c(NCc3ccc(OC)cc3)nc(NCc3ccccc3)nc21 [Compound 4l, N^2-Benzyl-9-hexyl-N^6-(4-methoxybenzyl)-9H-purine-2,6-diamine] | > 50 | – | > 50 | 6.8 ± 0.14 | – | 9 ± 0.13 | – | 15 ± 0.06 | – | – | – | – | – | – | –
6 | – | COc1cc([C@@H]2c3cc4c(cc3[C@@H](O[C@@H]3O[C@@H]5CO[C@@H](C)O[C@H]5[C@H](O)[C@H]3O)[C@H]3COC(=O)[C@H]23)OCO4)cc(OC)c1O [Etoposide, reference compound] | 8 ± 0.33 | – | 6.2 ± 0.18 | 2.8 ± 0.24 | – | 8.2 ± 0.33 | – | > 25 | – | – | – | – | – | – | –
7 | – | CCCCCCn1cnc2c(NCc3ccccc3)nc(NCc3ccccc3)nc21 [Compound 4f, N^2,N^6-Dibenzyl-9-hexyl-9H-purine-2,6-diamine] | 9.9 ± 0.18 | 2.63 | > 50 | 3 ± 0.12 | 8.67 | 5.3 ± 0.13 | 4.91 | 26 ± 0.12 | > 70 | > 70 | > 70 | – | – | – | –
8 | 69 to 70 | COc1ccc(CNc2nc(NCc3ccccc3)nc3c2ncn3C(C)C)cc1 [Compound 4g, N^2-Benzyl-9-isopropyl-N^6-(4-methoxybenzyl)-9H-purine-2,6-diamine] | > 50 | – | 22 ± 0.13 | 7.1 ± 0.11 | 2.11 | 10.7 ± 0.18 | 1.40 | 15 ± 0.23 | – | – | – | – | – | – | –
9 | 83 to 86 | CCCCCn1cnc2c(NCc3ccccc3)nc(NCc3ccccc3)nc21 [Compound 4d, N^2,N^6-Dibenzyl-9-pentyl-9H-purine-2,6-diamine] | 12 ± 0.19 | 0.21 | > 50 | 11 ± 0.11 | 0.23 | 10.1 ± 0.14 | 0.25 | 2.5 ± 0.2 | – | – | – | – | – | – | –
10 | – | CCCCn1cnc2c(NCc3ccc(OC)cc3)nc(NCc3ccccc3)nc21 [Compound 4h, N^2-Benzyl-9-butyl-N^6-(4-methoxybenzyl)-9H-purine-2,6-diamine] | 11 ± 0.25 | – | > 50 | 7 ± 0.16 | – | 6.3 ± 0.17 | – | 17 ± 0.2 | – | – | – | – | – | – | –
11 | 69 to 70 | CC(C)CCn1cnc2c(NCc3ccccc3)nc(NCc3ccccc3)nc21 [Compound 4e, N^2,N^6-Dibenzyl-9-isopentyl-9H-purine-2,6-diamine] | 8.6 ± 0.18 | 0.29 | > 50 | 5.1 ± 0.14 | 0.49 | 2.7 ± 0.13 | 0.93 | 2.5 ± 0.14 | – | – | – | – | – | – | –
12 | 110 to 112 | COc1ccc(CNc2nc(NCc3ccccc3)nc3c2ncn3CC(C)C)cc1 [Compound 4i, N^2-Benzyl-9-isobutyl-N^6-(4-methoxybenzyl)-9H-purine-2,6-diamine] | 3.4 ± 0.28 | 0.56 | > 50 | 1.6 ± 0.12 | 1.19 | 4.9 ± 0.16 | 0.39 | 1.9 ± 0.24 | – | – | – | – | – | – | –
13 | 113 to 115 | CCCCn1cnc2c(NCc3ccccc3)nc(NCc3ccccc3)nc21 [Compound 4b, N^2,N^6-Dibenzyl-9-butyl-9H-purine-2,6-diamine] | 28 ± 0.08 | 0.20 | > 50 | 7.2 ± 0.16 | 0.78 | 18 ± 0.14 | 0.31 | 5.6 ± 0.15 | – | – | – | – | – | – | –
